Test results reported in patent publication US6559137B1 (priority 1997, dated 2003).
Like-named read-outs stand apart in the source and are kept apart here.

Experiments:
[1] = dog, in vivo, po
[2] = in vivo; conditions: both, Sprague-Dawley, rat, po
[3] = both, Sprague-Dawley, rat, in vivo, po

`CC(C)CN(C[C@@H](O)[C@H](Cc1ccccc1)NC(=O)O[C@H]1CCOC1)S(=O)(=O)c1ccc(N)cc1` [VX-478] showed an AUC [1] of 23.5 ± 7.4 µg·h/mL, a Cmax [1] of 6.8 ± 1.1 µg/mL and a Tmax [1] of 1.0 ± 0.8 h. The AUC [2] was 29600 ± 5800 ng·h/mL and the AUC [3] was 16.2 ± 1.8 µg·h/mL.
